Measurements published in patent publication US8569339B2, “Soluble guanylate cyclase activators” (Boehringer Ingelheim International GmbH, priority 2011, dated 2013).
In brackets after ≈: the same amount, converted by molar mass.

Tests used:
[1] = Assessment of solubility (HT solubility, pION, UV); format: physicochemical; details: incubated 16-19 hours, 1.0% DMSO, 100 uM; for solubility kinetic: pH 4.5 buffer (pION system solution), pH 4.5, aqueous buffer, kinetic from dmso stock, pH 4.5 buffer, read-out: Sol pH 4.5; for Sol pH 7.4: pH 7.4 buffer
Summary of the method: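 Compounds were taken from 10 mM DMSO stocks into pH 4.5 or pH 7.4 buffer at 100 uM final (1.0% DMSO), run in duplicate, and incubated sealed for 16-19 h. Filtrates were diluted with N-propanol and read by UV at 250-498 nm against blank and reference spectra, […].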

[2] = target: T1, Recombinant human soluble guanylate cyclase (sGC) (Homo sapiens, UniProt Q02153); assay: Molecular assay: activation of heme-free sGC, cGMP detection (CisBio kit); format: biochemical; details: 300 pM heme-free sGC, 37° C., 60 minutes, cGMP formation
T1 construct: histidine tag (C); made in house; host or cells: Sf9 insect cells (baculovirus coinfection)
T1 sequence (Q02108 whole entry partner): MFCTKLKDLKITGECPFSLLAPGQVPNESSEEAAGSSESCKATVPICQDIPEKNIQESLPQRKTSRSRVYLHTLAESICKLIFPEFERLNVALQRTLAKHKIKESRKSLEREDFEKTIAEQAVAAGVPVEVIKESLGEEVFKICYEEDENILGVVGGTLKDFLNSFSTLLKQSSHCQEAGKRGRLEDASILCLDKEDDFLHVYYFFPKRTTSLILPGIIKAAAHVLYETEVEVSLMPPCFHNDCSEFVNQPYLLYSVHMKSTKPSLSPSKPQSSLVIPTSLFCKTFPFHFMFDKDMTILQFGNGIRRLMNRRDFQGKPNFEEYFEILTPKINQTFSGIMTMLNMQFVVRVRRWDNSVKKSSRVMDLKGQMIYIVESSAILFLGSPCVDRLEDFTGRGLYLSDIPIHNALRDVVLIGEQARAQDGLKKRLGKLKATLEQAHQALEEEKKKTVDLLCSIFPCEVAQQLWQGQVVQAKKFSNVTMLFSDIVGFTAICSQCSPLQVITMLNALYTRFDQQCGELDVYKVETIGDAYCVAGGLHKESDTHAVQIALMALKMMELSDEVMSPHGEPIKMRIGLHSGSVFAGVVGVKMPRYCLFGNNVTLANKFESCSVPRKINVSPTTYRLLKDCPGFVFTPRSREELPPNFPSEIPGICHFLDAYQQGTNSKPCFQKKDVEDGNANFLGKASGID
T1 sequence (Q02153 whole entry): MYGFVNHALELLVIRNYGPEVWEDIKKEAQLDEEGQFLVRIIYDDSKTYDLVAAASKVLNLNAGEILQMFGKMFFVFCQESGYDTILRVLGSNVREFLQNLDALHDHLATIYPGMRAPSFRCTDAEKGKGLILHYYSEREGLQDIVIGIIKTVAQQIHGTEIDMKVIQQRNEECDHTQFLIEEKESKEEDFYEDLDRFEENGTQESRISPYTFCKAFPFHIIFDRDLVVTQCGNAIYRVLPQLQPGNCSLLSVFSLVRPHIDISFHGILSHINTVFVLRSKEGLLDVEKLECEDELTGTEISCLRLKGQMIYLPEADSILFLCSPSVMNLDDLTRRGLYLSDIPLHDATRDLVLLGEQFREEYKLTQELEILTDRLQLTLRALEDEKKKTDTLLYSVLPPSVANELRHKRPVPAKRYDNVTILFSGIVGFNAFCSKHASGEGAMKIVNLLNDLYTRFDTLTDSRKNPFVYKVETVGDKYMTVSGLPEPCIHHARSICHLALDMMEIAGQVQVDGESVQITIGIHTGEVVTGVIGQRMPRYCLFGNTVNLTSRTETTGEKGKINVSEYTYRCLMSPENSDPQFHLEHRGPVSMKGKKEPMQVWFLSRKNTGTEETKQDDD
Summary of the method: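 Heme-free human α1/β1 sGC (His-tagged, Sf9-expressed, Tween 20-treated) at 300 pM incubated with compound in pH 6.8 MOPS buffer with 50 nM GTP, IBMX, 1% DMSO, 60 min at 37 °C. cGMP quantified by HTRF against a calibration curve; EC50 from combined undiluted and 80-fold diluted readings.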

solubility kinetic [1] [µg/mL]	Sol pH 7.4 [1] [μg/mL]	EC50 [2] [nM]	Compound
40.1 (≈ 72.3 µM)	51.4	47	Cc1ccc(OCc2ccc3c(c2C)CCN(C2CCOC2)C3)c(-c2cccc(-c3csc(C(=O)O)c3C)n2)c1 (stereo not drawn) [Compound 53]
0.95 (≈ 1.87 µM)	>50	280	Cc1ccc(OCc2ccc3c(c2)nnn3C)c(-c2cccc(-n3ncc(C(=O)O)c3C(F)(F)F)n2)c1 [Compound 10]
8.1 (≈ 15.5 µM)	>52	79	Cc1ccc(OCc2ccc3c(c2)N(C)CCC3)c(-c2cccc(-n3ncc(C(=O)O)c3C(F)(F)F)n2)c1 [Compound 13]
> 66	>66	100	Cc1cccc(-c2cccc(-c3ncc(C(=O)O)n3C)n2)c1OCc1ccc2c(c1)CCN(C1CCCCCC1)C2 [Compound 76]
> 78	>78	1100	Cc1cccc(-c2cccc(-n3cnc(C(=O)O)c3C)n2)c1OCc1ccc2c(c1)CCN(C1CCOCC1)C2 [Compound 57, 5-methyl-1-[6-[3-methyl-2-[(2-tetrahydropyran-4-yl-3,4-dihydro-1H-isoquinolin-6-yl)methoxy]phenyl]-2-pyridyl]imidazole-4-carboxylic acid]
42.3 (≈ 73.1 µM)	43.0	7	Cc1ccc(OCc2ccc3c(c2)CCN(C2CCOC2)C3)c(-c2cccc(-n3ncc(C(=O)O)c3C(F)(F)F)n2)c1 (stereo not drawn) [Compound 35, 1-(6-{5-methyl-2-[2-(tetrahydrofuran-3-yl)-1,2,3,4-tetrahydroisoquinolin-6-ylmethoxy]phenyl}pyridin-2-yl)-5-trifluoromethyl-1H-pyrazole-4-carboxylic acid]
12.9 (≈ 20.8 µM)	>61	0.5	Cc1ccc(OCc2ccc3c(c2)CCN(Cc2nc(C)cs2)C3)c(-c2cccc(-n3ncc(C(=O)O)c3C(F)(F)F)n2)c1 [Compound 29]
